In US11278584B2, “Pharmaceutical composition for preventing and treating senile dementia and preparation method thereof” (priority 2014, dated 2022):
Counter-ions that a name gives are not always drawn.

Tests used:
[1] = test system: Scop induced dysmnesia model rats; assay: Morris water maze test, scopolamine-induced dysmnesia model rats; format: in vivo, SD Male rats; conditions: intragastric 2 weeks, compositions 11.08 g raw medicinal materials/kg, Donepezil 1.17 mg/kg
Procedure: (§1) Animals: SD Male rats, available from Da Shuo Biological Technology Co. LTD, Chengdu City, China, were used. 2. Testing Method
(§2) Rats were randomly divided into Normal control group, Scop Model group, Positive control group (Donepezil, 1.17 mg/kg) and Experimental group (administered with a pharmaceutical composition of Example 1 in an amount of 11.08g raw medicinal materials per kg body weight). Before experiments, rats were fed by intragastric administration for 2 weeks. The normal control group and the model group were fed the same volume of distilled water. On day 9, rats were trained in the pool of Morris 2 times per day. On day 14, rats were subjected to do Morris water Maze and jump platform testing.
(§3) On experiment day, rats were intragastrically administered. 30 Minutes later, they were administered with scopolamine hydrobromide (HBr) by intraperitoneal injections (2 mg·kg^−1 for two days and then 1 mg·kg^−1 on day 3). 20 Minutes later, rats were subjected to Morris water Maze testing. […] Their swimming performance was tracked and recorded by a camera. The travel path, time spent and speed of movement of rats in 90 s were recorded by a computer automatically, and the swimming distance and escape latency for finding the platform were calculated. […] The first step down latency (SDL) and escape latency (the time required to escape from electric shock, EL) of rats were recorded.

[2] = test system: Scop induced dysmnesia model rats; assay: Jump platform test, scopolamine-induced dysmnesia model rats; format: in vivo, SD Male rats; conditions: intragastric 2 weeks, compositions 11.08 g raw medicinal materials/kg, Donepezil 1.17 mg/kg
Procedure: as §1, §2, §3

[3] = test system: Scop induced dysmnesia model mice; assay: Morris water maze test, scopolamine-induced dysmnesia model mice; format: in vivo; conditions: KM mice, intragastric 2 weeks, compositions 31.66 g raw medicinal materials/kg (J: high dosage), Donepezil 1.67 mg/kg
Excerpt: Animals: KM mice, available from Da Shuo Biological Technology Co. LTD, Chengdu City, China, were used.
Before experiments, mice of experimental group were fed by intragastric administration of a pharmaceutical composition for 2 weeks, while the normal control group and the model group were fed the same volume of distilled water. On day 9, mice were trained in the pool of Morris, 2 times per day. On day 14, mice were subjected to Morris water Maze testing.
On experiment day, mice were fed by intragastric administration. 30 Minutes later, they were administered with Scop in a dosage of 3 mg·kg^−1 via intraperitoneal injection. 20 Minutes later, the mice were subjected to Morris water Maze testing. The normal control group was intraperitoneally injected with the same volume of saline. The swimming performance of mice were tracked and recorded by a camera. The travel path, time spent and speed of movement of mice in 300 s were recorded by a computer automatically. The maximum latency was set as 300 s. The recording stopped after 300 s. The escape latency and swimming distance for looking for the platform were recorded.

SMILES: COc1cc2c(cc1OC)C(=O)C(CC1CCN(Cc3ccccc3)CC1)C2 (stereo not drawn) [Positive control, Donepezil Hydrochloride]
- Escape latency ([1]; model control 49.63): 37.27 s
- Distance (cm) ([1]; model control 2173.42): 1647.50 cm
- SDL(s) (first step down latency) ([2]; model control 16.04): 28.67 s
- EL(s) (escape latency from electric shock) ([2]; model control 130.63): 109.17 s
- Escape latency ([3]; model control 176.54): 141.42 s
- Swimming Distance (cm) ([3]; model control 3646.54): 2738.70 cm
